Read-outs that look alike come from different tables or passages of the source.

Consider four compounds from patent US20100203587A1, “USE OF DNA GYRASE INHIBITORS FOR IN VITRO POLYPEPTIDE SYNTHESIS REACTIONS” (priority 2009, published 2010).

One data set relates to bacterial strains. The settings on record: cited from earlier work; for minimum inhibitory concentration (According to literature): Klein et al.
The subject of a further data set is Clostridium difficile. As to conditions: Clostridium difficile (Shungu et al.); cited from earlier work.
Data set [1] concerns GM-CSF yields in cell-free reactions. The experiment in a line: Cell-free protein synthesis reaction, GM-CSF yields. The class given is biochemical, E. coli. The settings on record: for Concentration with very mild impact on GM-CSF yields in cell-free reactions: FIG. 3, 60 μL scale; for Concentration without impact in cell-free reactions: GM-CSF yields. The protocol: In vitro protein synthesis reactions occurred in lysates generated from a population of cells. The lysate must be generated such that it would be useful for expressing proteins. E. coli A19ΔendAΔtonAΔspeAΔtnaAΔsdaAΔsdaBΔgshAΔgorTrxBHAmet^+ was used for as the extract source cell strain.
E. coli cells were grown in a 10 L Braun Biostat C fermentor. The cells were grown on 2YPTG media in batch mode with pH control at pH 7.0. The cells were harvested at 3.2 OD (595) at growth rate of >0.7 per hour. Cells were separated from the media by centrifugation at 6000 g, 4° C. for 25 min and the resulting cell paste was stored at −80° C. The cell paste was thawed at 4° C. in S30 buffer (10 mM TRIS-acetate pH 8.2 (Sigma-Aldrich Corp. St. Louis, Mo.), 14 mM magnesium acetate (Sigma-Aldrich), and 60 mM potassium acetate (Sigma-Aldrich)) at a ratio of 1 mL of buffer per 1 g of wet cell paste. Resuspended cells were passed through a high pressure homogenizer (Emulsiflex C-50, Avestin Inc., Ottawa, Ontario, Canada). The pressure drop was set at 20000 psi. The homogenized mixture was then centrifuged at 30000 g, 4° C. for 30 minutes. The procedure was repeated twice and the supernatant was retained both times. The mixture was incubated at 37° C. for 80 min in a rotary shaker. The lysate was then centrifuged at 20000 g, 4° C. for 30 minutes and supernatant was retained.
The extract was pretreated with 50 μM iodoacetamide at 21° C. for 30 min. The plasmid contained the structural gene encoding the target protein and was constructed as explained above. Amino Acids were in an equimolar mixture of all 20 native amino acids.
The 250 μL of reaction mixture is spread on the bottom of a petri dish (BD Falcon) and incubated at 30° C. in a sealed humidified incubator for 5 hours. 300 mL reaction is performed in QPlus bioreactor, 4 L in 10 L Braun Biostat C fermentor and 100 L in 200 L fermentor (Sartorius).

The subject of data set [2] is bacterial growth in lysates used for cell-free reactions. The experiment in a line: Inhibition of bacterial growth from lysate in LB medium (Example 5). Type of data set: cell-based. As to conditions: 20 hours; for OD595: 30° C.; for Concentration that inhibits growth: Example 5, 30° C. The protocol: 20 μl of lysate was inoculated into 2 ml LB medium, which contained 0, 0.1, 0.25, 0.5, and 1 μg/mL of Norfloxacin or 0, 1, 2.5, 5, and 10 μg/ml Coumermycin A1 and was incubated at 30° C. by shaking at 300 rpm. OD595 was assayed after incubation for 20 hours.

The subject of data set [3] is bacterial growth from lysate. The experiment in a line: Inhibition of bacterial growth from lysate in LB medium (Example 6). The settings on record: 16 hours; for OD595 (cell density): 37° C. Type of data set: cell-based.
Data set [4] concerns hepatic nonprotein sulfhydryl groups (mainly reduced glutathione). As to conditions: in vivo and in vitro studies using rats (Lake et al.; Fernyhough et al.); cited from earlier work.

In the case of `CCn1cc(C(=O)O)c(=O)c2cc(F)c(N3CCNCC3)cc21` [Norfloxacin], in the data set with bacterial strains (most gastrointestinal strains tested (Shungu et al.)), the “Concentration that inhibits growth (According to literature)” value is 0.008 to 1 µg/mL. Moreover, the “inhibitory concentration (literature)” value in the data set on Clostridium difficile was 1 to 128 µg/mL. In data set [1], the “Concentration with very mild impact on GM-CSF yields in cell-free reactions” value is “up to 2.5 μg/ml”. Besides, the “Concentration without impact in cell-free reactions” value in data set [1] worked out at 2.5 µg/mL. For the same compound, the OD595 in data set [2] (0.1 μg/ml) amounted to 1.8; in data set [2] (0.25 μg/ml), 1.3; in data set [2] (0.5 μg/ml), 1.2; in data set [2] (1 μg/ml) it was 0.06. Also, in data set [2], the “Concentration that inhibits growth” value was found to be 1 µg/mL.
Regarding Coumermycin A1, the “Concentration that inhibits growth (According to literature)” value in the data set on bacterial strains (some strains tested (Hooper et al.)) is 2 to 8 µg/mL. Besides, the “Concentration with very mild impact on GM-CSF yields in cell-free reactions” value in data set [1] came to 10 µg/mL. The “Concentration without impact in cell-free reactions” value in data set [1] came out at 10 µg/mL. The OD595 in data set [2] (1 μg/ml) turned out to be 1.7; in data set [2] (2.5 μg/ml), 1.2; in data set [2] (5 μg/ml) it was 1.1; in data set [2] (10 μg/ml), 0.2. For the same compound, the “Concentration that inhibits growth” value in data set [2] is 10 µg/mL.
For the compound `O=C(O)c1cn(C2CC2)c2cc(N3CCNCC3)c(F)cc2c1=O` [Ciprofloxacin], the “minimum inhibitory concentration (According to literature)” value in the data set on bacterial strains is 1 (1) μg/ml; in the data set with bacterial strains (listed as ciprofloxacin), “about 1 μg/ml”. In addition, in data set [3] (Example 6, 37° C.), the “Concentration that inhibits growth” value worked out at 1 µg/mL.
As for `CO[C@@H]1[C@@H](OC(N)=O)[C@@H](O)[C@H](Oc2ccc3c(O)c(NC(=O)c4ccc(O)c(CC=C(C)C)c4)c(=O)oc3c2C)OC1(C)C` [Novobiocin], the “Concentration that inhibits growth (According to literature)” value with bacterial strains (different bacterial strains (Smith and Davis)) is 100 to 300 µg/mL. For the same compound, the “Concentration that negatively impacts GM-CSF yields in cell-free reactions” value in data set [1] (FIG. 5) is no less than 10 µg/mL. The “Effect on hepatic nonprotein sulfhydryl groups (mainly reduced glutathione)” value in data set [4] was “depletion of hepatic nonprotein sulfhydryl groups”. In addition, the “OD595 (cell density)” value in data set [3] (10 μg/ml) amounted to 0.003; in data set [3] (25 μg/ml) it was 0.17; in data set [3] (50 μg/ml) it was 0.08; in data set [3] (100 μg/ml), 0.1; in data set [3] (200 μg/ml), 0.13.
